According to ChEMBL document CHEMBL4342418, “1,2,3-Triazole-containing hybrids as potential anticancer agents: Current developments, action mechanisms and structure-activity relationships” (Eur J Med Chem, 2019):
Blank lines part the entries; values can stand above or below the compound they belong to.

Columns and labels:
Type in all cases: functional, cell-based
[1] = tested on: MCF7; assay: cells; conditions: Homo sapiens
Description: Antiproliferative activity against human MCF7 cells by MTT assay

[2] = tested on: Lu1; assay: Antiproliferative activity against human Lu1 cells by MTT assay
[3] = tested on: HL-60; assay: Antiproliferative activity against human HL60 cells by MTT assay
[4] = tested on: P388; assay: Antiproliferative activity against mouse P388 cells by MTT assay
[5] = tested on: K562; assay: Antiproliferative activity against human K562 cells assessed as reduction in cell viability after 24 hrs by MTT assay; conditions: K562, 24 h
[6] = tested on: PC-3; assay: Antiproliferative activity against human PC3 cells assessed as reduction in cell viability after 24 hrs by MTT assay; conditions: PC-3, 24 h
[7] = tested on: A-431; assay: Antiproliferative activity against human A431 cells assessed as reduction in cell viability after 24 hrs by MTT assay; conditions: A-431, 24 h
[8] = tested on: MDA-MB-231; assay: Antiproliferative activity against human MDA-MB-231 cells assessed as reduction in cell viability after 24 hrs by MTT assay; conditions: MDA-MB-231, 24 h
[9] = tested on: COLO 205; assay: Antiproliferative activity against human COLO205 cells assessed as reduction in cell viability after 24 hrs by MTT assay; conditions: COLO 205, 24 h
[10] = tested on: A549; assay: Antiproliferative activity against human A549 cells assessed as reduction in cell viability after 24 hrs by MTT assay; conditions: A549, 24 h
[11] = tested on: A549; assay: cells; conditions: Homo sapiens
Description: Antiproliferative activity against human A549 cells by MTT assay

[12] = tested on: HeLa; assay: Antiproliferative activity against human HeLa cells by MTT assay

SMILES: CCN(CC)C(=O)c1ccc(-n2cc(CO[C@H]3O[C@@H]4O[C@@]5(C)CC[C@H]6[C@H](C)CC[C@@H]([C@H]3C)[C@@]46OO5)nn2)cc1
IC50 [1]: 2.5 to 176 µM | IC50 [2]: 2.5 to 176 µM | IC50 [3]: 2.5 to 176 µM | IC50 [4]: 2.5 to 176 µM

SMILES: CC(=O)c1ccccc1-n1cc(CO[C@H]2O[C@@H]3O[C@@]4(C)CC[C@H]5[C@H](C)CC[C@@H]([C@H]2C)[C@@]35OO4)nn1
IC50 [5]: 4.06 to 89.9 µM | IC50 [6]: 4.06 to 89.9 µM | IC50 [7]: 4.06 to 89.9 µM | IC50 [8]: 4.06 to 89.9 µM | IC50 [9]: 4.06 to 89.9 µM | IC50 [10]: 4.06 to 89.9 µM

IC50 [5]: 4.06 to 89.9 µM | IC50 [6]: 4.06 to 89.9 µM | IC50 [7]: 4.06 to 89.9 µM | IC50 [8]: 4.06 to 89.9 µM | IC50 [9]: 4.06 to 89.9 µM | IC50 [10]: 4.06 to 89.9 µM
SMILES: CC(=O)c1ccc(-n2cc(CO[C@H]3O[C@@H]4O[C@@]5(C)O[C@]46[C@@H](CC[C@@H](C)[C@@H]6C[C@H]5O)[C@H]3C)nn2)cc1

IC50 [1]: 0.69 µM | IC50 [11]: 0.99 µM
SMILES: CC[C@H]1OC(=O)[C@H](C)[C@@H](O[C@H]2C[C@@](C)(OC)[C@@](C)(CN(C)Cc3ccc(-c4cn(CCCCCCC(=O)NO)nn4)cc3)[C@H](C)O2)[C@H](C)[C@@H](O)[C@](C)(OC)C[C@@H](C)C(=O)[C@H](C)[C@@H](O)[C@]1(C)O

SMILES: CC(=O)c1ccc(-n2cc(CO[C@H]3O[C@@H]4O[C@@]5(C)CC[C@H]6[C@H](C)CC[C@@H]([C@H]3C)[C@@]46OO5)nn2)cc1
IC50 [5]: 4.06 to 89.9 µM | IC50 [6]: 4.06 to 89.9 µM | IC50 [7]: 4.06 to 89.9 µM | IC50 [8]: 4.06 to 89.9 µM | IC50 [9]: 4.06 to 89.9 µM | IC50 [10]: 4.06 to 89.9 µM

SMILES: C[C@H]1[C@@H](OCc2cn(-c3ccc(C(=O)N4CCN(c5ccccc5)CC4)cc3)nn2)O[C@@H]2O[C@@]3(C)CC[C@H]4[C@H](C)CC[C@@H]1[C@@]24OO3
IC50 [1]: 2.5 to 176 µM | IC50 [2]: 2.5 to 176 µM | IC50 [3]: 2.5 to 176 µM | IC50 [4]: 2.5 to 176 µM

SMILES: C[C@H]1[C@@H](OCc2cn(-c3ccc(C(=O)N4CCN(C)CC4)cc3)nn2)O[C@@H]2O[C@@]3(C)CC[C@H]4[C@H](C)CC[C@@H]1[C@@]24OO3
IC50 [1]: 2.5 to 176 µM | IC50 [2]: 2.5 to 176 µM | IC50 [3]: 2.5 to 176 µM | IC50 [4]: 2.5 to 176 µM

SMILES: C[C@@H]1CC[C@H]2C[C@@H](OCc3cn(-c4ccnc5cc(Cl)ccc45)nn3)O[C@@H]3O[C@@]4(C)CC[C@@H]1[C@@]23OO4
IC50 [1]: 5.7 to 19.5 µM | IC50 [2]: 5.7 to 19.5 µM | IC50 [3]: 5.7 to 19.5 µM | IC50 [4]: 5.7 to 19.5 µM

SMILES: CC1CCN(C(=O)c2cccc(-n3cc(CO[C@H]4O[C@@H]5O[C@@]6(C)CC[C@H]7[C@H](C)CC[C@@H]([C@H]4C)[C@@]57OO6)nn3)c2)CC1
IC50 [1]: 2.5 to 176 µM | IC50 [2]: 2.5 to 176 µM | IC50 [3]: 2.5 to 176 µM | IC50 [4]: 2.5 to 176 µM

SMILES: C[C@H]1[C@@H](OCc2cn(-c3cccc(C(=O)N4CCN(C)CC4)c3)nn2)O[C@@H]2O[C@@]3(C)CC[C@H]4[C@H](C)CC[C@@H]1[C@@]24OO3
IC50 [1]: 2.5 to 176 µM | IC50 [2]: 2.5 to 176 µM | IC50 [3]: 2.5 to 176 µM | IC50 [4]: 2.5 to 176 µM

IC50 [1]: 17.5 µM | IC50 [12]: 12.2 µM
SMILES: COc1ccc(-n2cc(Cn3c(=O)sc4cc(Br)ccc43)nn2)cc1

IC50 [6]: 28.2 mg/L | IC50 [8]: 42.3 mg/L | IC50 [10]: 42.6 mg/L
SMILES: COc1cc(-c2ccccc2Cl)cc(-c2nnn(Cc3ccccc3)c2C)n1

SMILES: C[C@H]1[C@@H](OCc2cn(-c3ccc(C(=O)N4CCCCC4)cc3)nn2)O[C@@H]2O[C@@]3(C)CC[C@H]4[C@H](C)CC[C@@H]1[C@@]24OO3
IC50 [1]: 2.5 to 176 µM | IC50 [2]: 2.5 to 176 µM | IC50 [3]: 2.5 to 176 µM | IC50 [4]: 2.5 to 176 µM

SMILES: C[C@H]1[C@@H](OCc2cn(-c3cccc(C(=O)N4CCOCC4)c3)nn2)O[C@@H]2O[C@@]3(C)CC[C@H]4[C@H](C)CC[C@@H]1[C@@]24OO3
IC50 [1]: 2.5 to 176 µM | IC50 [2]: 2.5 to 176 µM | IC50 [3]: 2.5 to 176 µM | IC50 [4]: 2.5 to 176 µM

SMILES: CCN(CC)C(=O)c1cccc(-n2cc(CO[C@H]3O[C@@H]4O[C@@]5(C)CC[C@H]6[C@H](C)CC[C@@H]([C@H]3C)[C@@]46OO5)nn2)c1
IC50 [1]: 2.5 to 176 µM | IC50 [2]: 2.5 to 176 µM | IC50 [3]: 2.5 to 176 µM | IC50 [4]: 2.5 to 176 µM

IC50 [1]: 18.7 to 35.1 µM | IC50 [11]: 18.7 to 35.1 µM
SMILES: CO[C@H]1C[C@@H]2CC[C@@H](C)[C@@](O)(O2)C(=O)C(=O)N2CCCC[C@H]2C(=O)O[C@H]([C@H](C)C[C@@H]2CC[C@@H](O)[C@H](OC)C2)CC(=O)[C@H](C)/C=C(\C)[C@@H](O)[C@@H](OC)C(=O)[C@H](C)C[C@H](C)/C=C/C=C/C=C/1C [SIROLIMUS]

SMILES: CCN1CCN(C(=O)c2cccc(-n3cc(CO[C@H]4O[C@@H]5O[C@@]6(C)CC[C@H]7[C@H](C)CC[C@@H]([C@H]4C)[C@@]57OO6)nn3)c2)CC1
IC50 [1]: 2.5 to 176 µM | IC50 [2]: 2.5 to 176 µM | IC50 [3]: 2.5 to 176 µM | IC50 [4]: 2.5 to 176 µM

SMILES: C[C@H]1[C@@H](OCc2cn(-c3ccc(C(=O)N4CCOCC4)cc3)nn2)O[C@@H]2O[C@@]3(C)CC[C@H]4[C@H](C)CC[C@@H]1[C@@]24OO3
IC50 [1]: 2.5 to 176 µM | IC50 [2]: 2.5 to 176 µM | IC50 [3]: 2.5 to 176 µM | IC50 [4]: 2.5 to 176 µM

SMILES: C[C@H]1[C@@H](OCc2cn(-c3cccc(C(=O)N4CCN(c5ccccc5)CC4)c3)nn2)O[C@@H]2O[C@@]3(C)CC[C@H]4[C@H](C)CC[C@@H]1[C@@]24OO3
IC50 [1]: 2.5 to 176 µM | IC50 [2]: 2.5 to 176 µM | IC50 [3]: 2.5 to 176 µM | IC50 [4]: 2.5 to 176 µM

SMILES: CC1CCCCN1C(=O)c1cccc(-n2cc(CO[C@H]3O[C@@H]4O[C@@]5(C)CC[C@H]6[C@H](C)CC[C@@H]([C@H]3C)[C@@]46OO5)nn2)c1 (some centres not stated)
IC50 [1]: 2.5 to 176 µM | IC50 [2]: 2.5 to 176 µM | IC50 [3]: 2.5 to 176 µM | IC50 [4]: 2.5 to 176 µM

IC50 [11]: 3.65 µM
SMILES: CCC1(CCn2cc(COc3ccc(C)cc3)nn2)OCCc2c1[nH]c1ccccc21 (configuration not stated)

SMILES: CC1CCCCN1C(=O)c1ccc(-n2cc(CO[C@H]3O[C@@H]4O[C@@]5(C)CC[C@H]6[C@H](C)CC[C@@H]([C@H]3C)[C@@]46OO5)nn2)cc1 (some centres not stated)
IC50 [1]: 2.5 to 176 µM | IC50 [2]: 2.5 to 176 µM | IC50 [3]: 2.5 to 176 µM | IC50 [4]: 2.5 to 176 µM

SMILES: CC1CCN(C(=O)c2ccc(-n3cc(CO[C@H]4O[C@@H]5O[C@@]6(C)CC[C@H]7[C@H](C)CC[C@@H]([C@H]4C)[C@@]57OO6)nn3)cc2)CC1
IC50 [1]: 2.5 to 4.7 µM | IC50 [2]: 2.5 to 4.7 µM | IC50 [3]: 2.5 to 4.7 µM | IC50 [4]: 2.5 to 4.7 µM

SMILES: C[C@H]1[C@@H](OCc2cn(-c3cccc(C(=O)N4CCCCC4)c3)nn2)O[C@@H]2O[C@@]3(C)CC[C@H]4[C@H](C)CC[C@@H]1[C@@]24OO3
IC50 [1]: 2.5 to 176 µM | IC50 [2]: 2.5 to 176 µM | IC50 [3]: 2.5 to 176 µM | IC50 [4]: 2.5 to 176 µM

SMILES: CCN1CCN(C(=O)c2ccc(-n3cc(CO[C@H]4O[C@@H]5O[C@@]6(C)CC[C@H]7[C@H](C)CC[C@@H]([C@H]4C)[C@@]57OO6)nn3)cc2)CC1
IC50 [1]: 2.5 to 176 µM | IC50 [2]: 2.5 to 176 µM | IC50 [3]: 2.5 to 176 µM | IC50 [4]: 2.5 to 176 µM

IC50 [11]: 3.29 µM
SMILES: CCC1(CCn2cc(COc3ccccc3)nn2)OCCc2c1[nH]c1ccccc21 (configuration not stated)

SMILES: C[C@H]1[C@@H](OCc2cn(-c3ccc(C(=O)N4CCCC4)cc3)nn2)O[C@@H]2O[C@@]3(C)CC[C@H]4[C@H](C)CC[C@@H]1[C@@]24OO3
IC50 [1]: 2.5 to 176 µM | IC50 [2]: 2.5 to 176 µM | IC50 [3]: 2.5 to 176 µM | IC50 [4]: 2.5 to 176 µM

IC50 [1]: 21.8 µM | IC50 [12]: 19.5 µM
SMILES: COc1ccc(-c2ccc3c(c2)OCC(=O)N3Cc2cn(-c3cc(Cl)cc(Cl)c3)nn2)cc1

SMILES: C[C@H]1[C@@H](OCc2cn(-c3cccc(C(=O)N4CCCC4)c3)nn2)O[C@@H]2O[C@@]3(C)CC[C@H]4[C@H](C)CC[C@@H]1[C@@]24OO3
IC50 [1]: 2.5 to 176 µM | IC50 [2]: 2.5 to 176 µM | IC50 [3]: 2.5 to 176 µM | IC50 [4]: 2.5 to 176 µM
